One series has as its system HIV-IIIB. As to conditions: 50% reduction in infectious virus titer. The text has this:
Assessment of biological properties included measurement of antiviral activity against HIV-1 strains. […] These assays score for reduction of infectious virus titer employing the indicator cell lines MAGI or the CCR5 expressing derivative cMAGI. Both cell lines exploit the ability of HIV-1 tat to transactivate the expression of a β-galactosidase reporter gene driven by the HIV-LTR. The β-gal reporter has been modified to localize in the nucleus and can be detected with the X-gal substrate as intense nuclear staining within a few days of infection. The number of stained nuclei can thus be interpreted as equal to the number of infectious virions in the challenge inoculum if there is only one round of infection prior to staining. […] In the MAGI and cMAGI assays, a 50% reduction in infectious titer (Vn/Vo=0.5) is significant, and provides the primary cutoff value for assessing antiviral activity (“IC50” is defined as the concentration of active ingredient resulting in a 50% reduction in infectious virus titer). […] The number of infected cells for each control and peptide dilution was determined with the CCD-imager, and then the IC50 was calculated (expressed in μg/ml).

The nature of series [1]: Intravenous pharmacokinetics in cynomolgus monkeys. In kind it is in vivo, cynomolgus monkeys (Macaca fasicularis). How it is done:
For determining pharmacokinetic properties, an HIV fusion inhibitor peptide or a base sequence from which an HIV fusion inhibitor peptide is derived was dosed intravenously in cynomolgus monkeys (Macaca fasicularis) (other animal models may be used for determining pharmacokinetic properties, as known in the art). At various times post-dose, blood samples were drawn and plasma isolated by centrifugation. Plasma samples were stored frozen until analysis by LC-MS (liquid chromatography/mass spectrometry) in the electrospray, positive-ion mode. An HIV fusion inhibitor or base sequence was eluted from a C18 or C8 HPLC column with a gradient of acetonitrile in a buffer of 10 mM ammonium acetate, pH 6.8. At the time of analysis, plasma samples were deproteinated with either two or three volumes of acetonitrile containing 0.5% formic acid. Duplicate calibration standards in cynomolgus plasma samples were prepared at the same time as the samples and analyzed before and after the samples containing either HIV fusion inhibitor peptide or base sequence. Pharmacokinetic properties were calculated from the plasma concentration-time data using either mono-exponential or bi-exponential mathematical models. Models were derived by non-linear least squares optimization. A 1/C^2 weighting of concentrations was used. The following equations were used to calculate area-under the plasma concentration vs. time curve (AUC), total body clearance (Cl), and terminal elimination half-life (t ½).
Where A and B are intercepts and a and b are the rate constants of the exponential equations describing the distribution and elimination phases, respectively. When mono-exponential models were used, the “A” and “a” properties were eliminated.
Cl=Dose/AUC (expressed in L/K/hr)
t½=0.6903/b (expressed in hr)

Another series relates to HIV-Res. In kind it is cell-based, HIV-1. Particulars: resistant viral isolate "Res". The text has this: Assessment of biological properties included measurement of antiviral activity against HIV-1 strains. In determining antiviral activity (e.g., one measure being the ability to inhibit transmission of HIV to a target cell) of the HIV fusion inhibitor peptides, an in vitro assay which has been shown, by data generated using peptides derived from the HR regions of HIV gp41, to be predictive of antiviral activity observed in vivo was used. […] These assays score for reduction of infectious virus titer employing the indicator cell lines MAGI or the CCR5 expressing derivative cMAGI. Both cell lines exploit the ability of HIV-1 tat to transactivate the expression of a β-galactosidase reporter gene driven by the HIV-LTR. The β-gal reporter has been modified to localize in the nucleus and can be detected with the X-gal substrate as intense nuclear staining within a few days of infection. […] The number of infected cells for each control and peptide dilution was determined with the CCD-imager, and then the IC50 was calculated (expressed in μg/ml).
Viruses resistant to the antiviral activity of a peptide consisting of a base sequence can be produced using standard laboratory methods. […] The cultures are maintained and monitored until syncytia are present. […] The second round of culture is maintained and monitored for presence of virus resistant to the antiviral activity of the peptide. […]

The results in this text go back to US20090068243A1, “Novel formulations for delivery of antiviral peptide therapeutics” (priority 2007, published 2009).

A value given as a limit tells only on which side of the number the result lay.

The clearance is a measure of how efficiently the substance is removed, as volume per time. The low end stands for a low capacity for elimination, the high end for a high capacity for elimination. What is called half-life is the time needed for the level to fall by half in the phase considered. As for “Ac-TTWEAWDRAIAEYAARIEALLRALQEQQEKNEAALREL-NH2 [SEQ ID NO:9, TTWEAWDRAIAEYAARIEALLRALQEQQEKNEAALREL]”, the “Antiviral Activity (μg/ml) HIV-IIIB IC50” value with HIV-IIIB was less than 0.10 µg/mL. Moreover, the “biological half-life relative to base sequence, in words” value in series [1] (comment on Table 2) is on record as “increased biological half-life”. The clearance in series [1] (cynomolgus monkey, plasma, iv, dosed intravenously) was less than 0.333 mL/min/kg. In series [1] (cynomolgus monkey, plasma, iv, dosed intravenously, read-out: Half-life (t ½; hr) (converted)), the half-life is 12 h. The “Antiviral Activity (μg/ml) HIV-Res IC50” value in the series on HIV-Res is less than 0.10 µg/mL.
